{
  "source": "patent US20100273769A1",
  "about": "“COMPOSITION AND METHOD FOR THE TREATMENT OF PARKINSON'S DISEASE” (priority 2009, published 2010)",
  "key": {"[1]": {"target": "ERK2 (Homo sapiens, UniProt P28482)", "sequence (P28482 whole entry, species assumed)": "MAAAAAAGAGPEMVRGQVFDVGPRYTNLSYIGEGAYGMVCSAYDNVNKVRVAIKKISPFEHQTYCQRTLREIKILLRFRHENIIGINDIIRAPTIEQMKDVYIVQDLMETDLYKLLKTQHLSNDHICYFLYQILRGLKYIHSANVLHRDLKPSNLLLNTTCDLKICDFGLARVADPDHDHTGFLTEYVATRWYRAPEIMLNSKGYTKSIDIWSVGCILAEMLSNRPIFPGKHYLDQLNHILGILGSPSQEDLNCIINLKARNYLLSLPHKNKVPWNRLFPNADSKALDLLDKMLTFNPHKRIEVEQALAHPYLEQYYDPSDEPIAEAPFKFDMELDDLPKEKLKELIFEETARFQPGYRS", "assay": "Kinase specificity, ERK2", "type": "biochemical", "settings": "100 μM ATP"}, "[2]": {"target": "Cdk1 (Homo sapiens, UniProt P06493)", "sequence (P06493 whole entry, species assumed)": "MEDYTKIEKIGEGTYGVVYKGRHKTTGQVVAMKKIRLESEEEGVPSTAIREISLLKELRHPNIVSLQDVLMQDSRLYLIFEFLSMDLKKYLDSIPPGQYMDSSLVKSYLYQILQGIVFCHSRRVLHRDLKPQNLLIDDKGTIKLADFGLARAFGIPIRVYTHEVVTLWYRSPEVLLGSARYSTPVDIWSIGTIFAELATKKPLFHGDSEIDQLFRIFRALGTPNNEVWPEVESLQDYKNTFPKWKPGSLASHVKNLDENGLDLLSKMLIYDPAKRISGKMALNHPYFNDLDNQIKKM", "sequence (P14635 whole entry partner, species assumed)": "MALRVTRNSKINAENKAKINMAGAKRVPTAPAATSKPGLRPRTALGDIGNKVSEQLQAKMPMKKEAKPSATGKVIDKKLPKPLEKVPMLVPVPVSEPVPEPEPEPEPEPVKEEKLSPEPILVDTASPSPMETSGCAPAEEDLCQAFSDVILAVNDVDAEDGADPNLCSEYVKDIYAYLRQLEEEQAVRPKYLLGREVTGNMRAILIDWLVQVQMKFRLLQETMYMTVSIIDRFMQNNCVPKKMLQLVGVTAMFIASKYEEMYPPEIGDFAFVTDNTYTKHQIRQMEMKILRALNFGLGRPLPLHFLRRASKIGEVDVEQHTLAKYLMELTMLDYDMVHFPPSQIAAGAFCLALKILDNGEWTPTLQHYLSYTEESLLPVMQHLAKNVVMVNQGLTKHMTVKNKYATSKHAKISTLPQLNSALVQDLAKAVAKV", "assay": "Kinase specificity, Cdk1", "type": "biochemical", "settings": "100 μM ATP"}, "[3]": {"target": "T1, wildtype human LRRK2 (Homo sapiens, UniProt Q5S007)", "T1 construct": "human LRRK2 protein fragment encompassing amino acids 1326 to 2527; GST; made in house", "T1 sequence (Q5S007 1326-2527)": "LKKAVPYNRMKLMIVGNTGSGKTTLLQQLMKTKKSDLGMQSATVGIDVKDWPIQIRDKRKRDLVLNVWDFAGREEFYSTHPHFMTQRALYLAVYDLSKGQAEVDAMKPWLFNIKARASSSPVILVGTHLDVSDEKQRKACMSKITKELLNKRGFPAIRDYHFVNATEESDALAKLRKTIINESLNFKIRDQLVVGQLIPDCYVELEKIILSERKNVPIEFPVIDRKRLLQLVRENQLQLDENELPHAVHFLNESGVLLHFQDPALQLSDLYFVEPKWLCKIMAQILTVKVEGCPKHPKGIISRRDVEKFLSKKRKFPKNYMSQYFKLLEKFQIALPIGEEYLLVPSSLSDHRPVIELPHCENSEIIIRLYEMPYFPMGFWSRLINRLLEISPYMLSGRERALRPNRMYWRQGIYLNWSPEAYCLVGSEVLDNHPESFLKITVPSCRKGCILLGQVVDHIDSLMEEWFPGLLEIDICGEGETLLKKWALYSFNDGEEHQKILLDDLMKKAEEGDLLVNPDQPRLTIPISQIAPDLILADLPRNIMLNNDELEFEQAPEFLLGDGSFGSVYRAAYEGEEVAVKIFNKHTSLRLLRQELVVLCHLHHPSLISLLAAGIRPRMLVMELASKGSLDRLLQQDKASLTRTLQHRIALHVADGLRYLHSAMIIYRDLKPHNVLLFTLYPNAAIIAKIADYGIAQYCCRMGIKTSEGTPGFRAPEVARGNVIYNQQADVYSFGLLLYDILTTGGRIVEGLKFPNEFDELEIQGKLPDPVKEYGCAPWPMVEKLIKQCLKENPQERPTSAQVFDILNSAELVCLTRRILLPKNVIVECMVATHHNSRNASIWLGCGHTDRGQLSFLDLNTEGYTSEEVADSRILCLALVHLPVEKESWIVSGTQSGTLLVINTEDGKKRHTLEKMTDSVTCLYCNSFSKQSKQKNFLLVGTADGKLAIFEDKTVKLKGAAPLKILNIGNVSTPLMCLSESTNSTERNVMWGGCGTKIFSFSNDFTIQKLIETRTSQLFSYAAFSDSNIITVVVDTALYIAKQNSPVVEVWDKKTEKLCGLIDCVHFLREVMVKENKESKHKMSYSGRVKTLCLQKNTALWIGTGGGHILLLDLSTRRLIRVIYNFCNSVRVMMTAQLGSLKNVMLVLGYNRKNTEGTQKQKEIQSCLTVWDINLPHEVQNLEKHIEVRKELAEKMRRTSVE", "assay": "Adapta assay, inhibition of wildtype human LRRK2 kinase fragment with LRRKtide", "type": "biochemical"}, "[4]": {"target": "PKA", "assay": "Kinase specificity, PKA", "type": "biochemical", "settings": "100 μM ATP"}, "[5]": {"target": "LRRK2 (Homo sapiens, UniProt Q5S007)", "sequence (Q5S007 whole entry)": "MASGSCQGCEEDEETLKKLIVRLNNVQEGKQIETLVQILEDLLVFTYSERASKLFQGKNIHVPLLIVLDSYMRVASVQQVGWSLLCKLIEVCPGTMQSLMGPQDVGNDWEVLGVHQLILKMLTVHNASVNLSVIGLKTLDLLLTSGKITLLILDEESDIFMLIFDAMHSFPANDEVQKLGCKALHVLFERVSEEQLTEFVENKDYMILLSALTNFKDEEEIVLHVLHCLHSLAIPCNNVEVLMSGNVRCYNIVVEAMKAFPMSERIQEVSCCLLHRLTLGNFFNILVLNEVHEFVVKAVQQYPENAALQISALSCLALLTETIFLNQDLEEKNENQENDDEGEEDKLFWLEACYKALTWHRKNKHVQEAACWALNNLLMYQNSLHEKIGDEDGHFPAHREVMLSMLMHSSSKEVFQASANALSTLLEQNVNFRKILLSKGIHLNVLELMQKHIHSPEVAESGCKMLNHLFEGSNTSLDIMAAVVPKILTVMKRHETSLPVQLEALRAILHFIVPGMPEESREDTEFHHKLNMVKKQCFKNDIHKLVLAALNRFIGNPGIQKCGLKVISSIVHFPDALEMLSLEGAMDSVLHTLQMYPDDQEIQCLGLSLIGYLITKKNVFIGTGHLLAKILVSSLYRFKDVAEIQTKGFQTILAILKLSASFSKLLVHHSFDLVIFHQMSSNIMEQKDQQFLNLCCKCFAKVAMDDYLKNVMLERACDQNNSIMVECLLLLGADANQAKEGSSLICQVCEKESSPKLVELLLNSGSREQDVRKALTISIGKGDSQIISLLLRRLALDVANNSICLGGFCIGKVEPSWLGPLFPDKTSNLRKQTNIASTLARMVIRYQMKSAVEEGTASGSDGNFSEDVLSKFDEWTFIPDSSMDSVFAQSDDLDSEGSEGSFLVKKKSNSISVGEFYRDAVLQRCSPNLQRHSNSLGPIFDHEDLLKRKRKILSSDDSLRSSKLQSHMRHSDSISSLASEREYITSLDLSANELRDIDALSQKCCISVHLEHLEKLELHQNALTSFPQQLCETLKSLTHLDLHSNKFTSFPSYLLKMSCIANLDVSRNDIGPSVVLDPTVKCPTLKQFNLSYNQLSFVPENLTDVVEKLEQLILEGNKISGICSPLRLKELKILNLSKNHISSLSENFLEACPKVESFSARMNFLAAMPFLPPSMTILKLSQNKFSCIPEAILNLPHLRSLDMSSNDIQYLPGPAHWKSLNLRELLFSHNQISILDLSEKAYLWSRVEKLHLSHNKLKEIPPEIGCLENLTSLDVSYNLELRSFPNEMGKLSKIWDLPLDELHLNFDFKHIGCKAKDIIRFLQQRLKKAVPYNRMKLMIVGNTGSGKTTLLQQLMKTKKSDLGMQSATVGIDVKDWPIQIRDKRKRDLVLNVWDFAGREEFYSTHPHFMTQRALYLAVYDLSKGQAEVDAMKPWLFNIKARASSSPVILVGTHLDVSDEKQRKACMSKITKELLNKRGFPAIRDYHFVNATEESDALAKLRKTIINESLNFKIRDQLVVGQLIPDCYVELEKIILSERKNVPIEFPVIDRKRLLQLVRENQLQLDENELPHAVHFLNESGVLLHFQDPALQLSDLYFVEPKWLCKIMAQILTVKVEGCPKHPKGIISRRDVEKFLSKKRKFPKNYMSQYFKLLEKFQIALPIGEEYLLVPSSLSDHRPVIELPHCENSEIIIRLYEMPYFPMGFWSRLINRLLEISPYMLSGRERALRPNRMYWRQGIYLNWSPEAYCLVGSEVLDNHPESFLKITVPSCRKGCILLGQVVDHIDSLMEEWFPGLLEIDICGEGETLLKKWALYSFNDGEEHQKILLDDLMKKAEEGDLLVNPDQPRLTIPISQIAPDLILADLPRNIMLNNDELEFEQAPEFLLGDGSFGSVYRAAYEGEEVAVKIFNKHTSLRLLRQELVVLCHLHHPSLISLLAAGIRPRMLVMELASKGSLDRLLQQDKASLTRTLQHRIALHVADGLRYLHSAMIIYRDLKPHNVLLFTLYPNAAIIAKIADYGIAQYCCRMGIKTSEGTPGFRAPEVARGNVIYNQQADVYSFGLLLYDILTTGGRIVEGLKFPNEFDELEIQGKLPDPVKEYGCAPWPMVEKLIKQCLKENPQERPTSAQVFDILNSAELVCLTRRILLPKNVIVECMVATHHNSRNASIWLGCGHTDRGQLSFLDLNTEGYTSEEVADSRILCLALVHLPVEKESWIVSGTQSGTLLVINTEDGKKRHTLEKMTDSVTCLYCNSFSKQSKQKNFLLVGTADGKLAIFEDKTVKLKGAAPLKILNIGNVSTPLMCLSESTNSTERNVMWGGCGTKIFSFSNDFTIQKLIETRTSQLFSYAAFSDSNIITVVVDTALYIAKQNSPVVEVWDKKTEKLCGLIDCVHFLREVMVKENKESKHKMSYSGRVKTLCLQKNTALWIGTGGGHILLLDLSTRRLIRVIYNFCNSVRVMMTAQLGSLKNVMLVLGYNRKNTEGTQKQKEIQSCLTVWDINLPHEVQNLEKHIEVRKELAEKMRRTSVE", "settings": "Covy and Giasson 2009; Anand et al. 2009; cited from earlier work"}, "[6]": {"target": "GSK3", "assay": "Kinase specificity, GSK3", "type": "biochemical", "settings": "100 μM ATP"}, "[7]": {"target": "PKC", "assay": "Kinase specificity, PKC", "type": "biochemical", "settings": "100 μM ATP"}, "[8]": {"tested_on": "R1441C LRRK2 transgenic C. elegans", "assay": "Food-sensing (slowing) response in LRRK2 transgenic C. elegans", "type": "in vivo", "settings": "2 mM added to the assay, FIG. 5 inset", "experimental": "Dopaminergic neurons in C. elegans are involved in food sensing behavior such that in the absence of food worms move more rapidly, as assessed by determining their bending frequency on an agar plate not supplied with food. In an established assay the animals are then exposed to food, and the difference in motility is recorded in the form of bending frequency [Sawin et al., Neuron 26, 619-631 (2000)]. […] In approximate synchrony with the dopaminergic neurodegeneration this slowing response is essentially eliminated after 4 days. […] The slowing response can be reconstituted to a substantial degree by supplementation with dopamine, confirming that the phenotype is due to loss of dopaminergic input (FIG. 5).\nThe clear-cut functional phenotype of this model can be used to determine the efficacy of LRRK2 kinase inhibitors and the accurate determination of their potency in a biological context. […] The potency is expressed as the half-maximal restoration of the slowing response. […]\nThe functional consequence of dopaminergic neurodegeneration was assayed using the food-sensing response resulting in a slowing of motility after food exposure as assessed by the frequency of body bending within 20 second intervals in groups of 10 animals [Sawin et al., Neuron 26, 619-631 (2000)]. […]"}, "[9]": {"assay": "Lethal plasma concentration after single dosing", "type": "in vivo", "settings": "read-out: LC50 as plasma concentration"}},
  "note": "Where two headings read alike, the source gives them in different places.",
  "data": [
    {"smiles": "COC(=O)[C@@]1(N)CC2OC1(C)n1c3ccccc3c3c4c(c5c6ccccc6n2c5c31)C(=O)NC4", "note": "(stereo partly drawn) [Compound 5]", "values": [
      {"measurement": "IC50", "setting": "[1]", "value": 0.35, "unit": "µM"},
      {"measurement": "IC50", "setting": "[2]", "value": 0.26, "unit": "µM"},
      {"measurement": "IC50", "setting": "[3]; 100 μM ATP, read-out: LRRK2", "value": 0.001, "unit": "µM"},
      {"measurement": "IC50", "setting": "[3]; 100 microM ATP, read-out: LRRK2 inhibitory potency (essentially receptor-limited)", "value": "≤ 0.001", "unit": "µM"}
    ]},
    {"smiles": "CC12OC(C[C@]1(N)CO)n1c3ccccc3c3c4c(c5c6ccccc6n2c5c31)CNC4=O", "note": "(stereo partly drawn) [Compound 13]", "values": [
      {"measurement": "IC50", "setting": "[3]; 100 μM ATP, read-out: LRRK2", "value": 0.001, "unit": "µM"}
    ]},
    {"smiles": "CNC(=O)[C@@]1(N)CC2OC1(C)n1c3ccccc3c3c4c(c5c6cc(Br)ccc6n2c5c31)C(=O)NC4", "note": "(stereo partly drawn) [Compound 14]", "values": [
      {"measurement": "IC50", "setting": "[3]; 100 μM ATP, read-out: LRRK2", "value": 0.0012, "unit": "µM"}
    ]},
    {"smiles": "CNC(=O)C1(N)CC2OC1(C)n1c3ccc(Br)cc3c3c4c(c5c6cc(Br)ccc6n2c5c31)C(=O)NC4", "note": "(stereo not drawn) [Compound 15]", "values": [
      {"measurement": "IC50", "setting": "[3]; 100 μM ATP, read-out: LRRK2", "value": 0.0015, "unit": "µM"}
    ]},
    {"smiles": "COC(=O)[C@@]1(O)C[C@H]2O[C@]1(C)n1c3ccccc3c3c4c(c5c6ccccc6n2c5c31)C(=O)NC4", "note": "[Compound K252a, K252a, reference compound]", "values": [
      {"measurement": "IC50", "setting": "[4]", "value": 3.4, "unit": "µM"},
      {"measurement": "IC50", "setting": "[1]", "value": 0.12, "unit": "µM"},
      {"measurement": "Activity as inhibitor of LRRK2", "setting": "[5]", "value": "active as inhibitors of LRRK2"},
      {"measurement": "IC50", "setting": "[6]", "value": "> 10", "unit": "µM"},
      {"measurement": "IC50", "setting": "[2]", "value": 0.31, "unit": "µM"},
      {"measurement": "IC50", "setting": "[3]", "value": 0.22, "unit": "µM"},
      {"measurement": "Potency for LRRK2 inhibition lower than that of compound 5", "setting": "[3]; direct comparison", "value": "more than 2 orders of magnitude"},
      {"measurement": "IC50", "setting": "[7]", "value": 5, "unit": "µM"}
    ]},
    {"smiles": "Cl.NCCc1ccc(O)c(O)c1", "note": "[dopamine hydrochloride, reference compound]", "values": [
      {"measurement": "Loss of the food-sensing response in impaired LRRK2 worms", "setting": "[8]", "value": "partially rescued"}
    ]},
    {"smiles": "CN[C@@H]1C[C@H]2O[C@@](C)([C@@H]1OC)n1c3ccccc3c3c4c(c5c6ccccc6n2c5c31)C(=O)NC4", "note": "[staurosporine]", "values": [
      {"measurement": "Activity as inhibitor of LRRK2", "setting": "[5]", "value": "active as inhibitors of LRRK2"},
      {"measurement": "LC50", "setting": "[9]", "value": "0.2 to 0.3", "unit": "µM"}
    ]}
  ]
}
